Earlier results on one compound are cited in US12251361B2, “Solutions for oral dosage” (LIQMEDS WORLDWIDE LIMITED, priority 2019, dated 2025).

Turning to `CN(C)CCC=C1c2ccccc2CCc2ccccc21.Cl` [Amitriptyline HCl, 3-(10,11-dihydro-5H-dibenzo[a,d]cycloheptene-5-ylidene)-N,N-dimethyl-1-propanamine hydrochloride], the Solubility in water result was “freely soluble”.
